US20250115583A1, “BICYCLIC INDAZOLE GLUCOCORTICOID RECEPTOR ANTAGONISTS” (Corcept Therapeutics Incorporated, priority 2021, published 2025)

What follows are compounds tested against glucocorticoid receptor (Homo sapiens (Human), UniProt P04150) (assay: HepG2 TAT assay: inhibition of dexamethasone-induced tyrosine aminotransferase (TAT) activity). Conditions: HepG2 cells, challenge of 100 nM dexamethasone, 18-24 hr; IC50 converted to Ki by Cheng and Prusoff equation.
Assay type: cell-based
Description: Glucocorticoid mediated activation of TAT occurs by transactivation of glucocorticoid response elements in the TAT promoter by glucocorticoid receptor-agonist complex.
HepG2 cells were cultured using MEME media supplemented with 10% (v/v) foetal bovine serum; 2 mM L-glutamine and 1% (v/v) NEAA at 37° C., 5%/95% (v/v) CO2/air.
Compounds were serially half log diluted in 100% (v/v) dimethylsulphoxide from a 10 mM stock.
HepG2 cells were then lysed with 30 μl of cell lysis buffer containing a protease inhibitor cocktail for 15 minutes at 4° C. […] After 2 hours incubation at 37° C. the reaction was terminated by the addition of 15 μl of 10M aqueous potassium hydroxide solution, and the plates incubated for a further 30 minutes at 37° C.
[compound] and fitting the data to a 4 parameter logistic equation.

Chain of glucocorticoid receptor (P04150 whole entry): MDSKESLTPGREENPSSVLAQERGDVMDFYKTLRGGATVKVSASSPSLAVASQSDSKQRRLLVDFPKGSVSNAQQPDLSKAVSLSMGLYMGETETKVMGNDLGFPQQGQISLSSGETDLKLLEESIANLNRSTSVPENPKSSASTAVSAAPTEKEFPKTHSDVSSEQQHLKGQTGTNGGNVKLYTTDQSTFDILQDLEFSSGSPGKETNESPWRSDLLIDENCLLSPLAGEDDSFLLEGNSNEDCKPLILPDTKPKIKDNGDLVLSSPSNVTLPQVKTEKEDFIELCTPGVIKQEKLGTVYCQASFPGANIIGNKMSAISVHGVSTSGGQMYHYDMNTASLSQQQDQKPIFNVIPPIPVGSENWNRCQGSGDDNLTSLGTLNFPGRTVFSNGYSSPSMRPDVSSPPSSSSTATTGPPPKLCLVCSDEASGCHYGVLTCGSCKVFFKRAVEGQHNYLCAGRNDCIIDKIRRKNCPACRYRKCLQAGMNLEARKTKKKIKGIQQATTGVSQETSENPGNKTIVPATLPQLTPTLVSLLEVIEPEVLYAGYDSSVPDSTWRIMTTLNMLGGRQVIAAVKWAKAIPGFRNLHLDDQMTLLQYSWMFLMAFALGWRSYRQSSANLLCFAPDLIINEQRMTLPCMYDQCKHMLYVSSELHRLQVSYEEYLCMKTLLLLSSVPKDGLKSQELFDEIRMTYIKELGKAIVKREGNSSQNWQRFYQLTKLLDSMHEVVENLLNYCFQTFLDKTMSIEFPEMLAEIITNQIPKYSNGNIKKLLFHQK

Point of comparison: Cc1cc2c(cnn2-c2ccc(F)cc2)cc1[C@@]12CN(C(=O)c3cccc(N4CCOCC4)c3)C[C@@H]1[C@H]2c1ccccc1 (stereo in doubt) [Example 142, (1-(1-(4-fluorophenyl)-6-methyl-1H-indazol-5-yl)-6-phenyl-3-azabicyclo[3.1.0]hexan-3-yl)(3-morpholinophenyl)methanone], Ki 15 nM. Against it:
- Cc1cc2c(cnn2-c2ccc(F)cc2)cc1[C@@]12CN(C(=O)c3cccc(F)c3)C[C@@H]1[C@H]2c1ccccc1 (stereo in doubt) [Example 117, (3-fluorophenyl)(1-(1-(4-fluorophenyl)-6-methyl-1H-indazol-5-yl)-6-phenyl-3-azabicyclo[3.1.0]hexan-3-yl)methanone] — 2.3-fold higher, 34 nM
- Cc1cc2c(cnn2-c2ccc(F)cc2)cc1[C@@]12CN(C(=O)C3CCC3)C[C@@H]1[C@H]2c1ccccc1 (stereo in doubt) [Example 120, cyclobutyl(1-(1-(4-fluorophenyl)-6-methyl-1H-indazol-5-yl)-6-phenyl-3-azabicyclo[3.1.0]hexan-3-yl)methanone] — 3.5-fold higher, 52 nM
- Cc1cc2c(cnn2-c2ccc(F)cc2)cc1[C@@]12CN(C(=O)N3CCOCC3)C[C@@H]1[C@H]2c1ccccc1 (stereo in doubt) [Example 121, (1-(1-(4-fluorophenyl)-6-methyl-1H-indazol-5-yl)-6-phenyl-3-azabicyclo[3.1.0]hexan-3-yl)(morpholino)methanone] — 3.3-fold higher, 49 nM
- Cc1noc([C@@H]2[C@H]3CN(S(=O)(=O)c4cnn(C)n4)C[C@]32c2cc3cnn(-c4ccc(F)cc4)c3cc2C)n1 (stereo in doubt) [Example 131, 5-(1-(1-(4-fluorophenyl)-6-methyl-1H-indazol-5-yl)-3-((2-methyl-2H-1,2,3-triazol-4-yl)sulfonyl)-3-azabicyclo[3.1.0]hexan-6-yl)-3-methyl-1,2,4-oxadiazole] — 16-fold higher, 240 nM
- Cc1cc2c(cnn2-c2ccc(F)cc2)cc1[C@@]12CN(S(=O)(=O)c3cnn(C)n3)C[C@@H]1[C@H]2Cn1cccn1 (stereo in doubt) [Example 132, 5-(6-((1H-pyrazol-1-yl)methyl)-3-((2-methyl-2H-1,2,3-triazol-4-yl)sulfonyl)-3-azabicyclo[3.1.0]hexan-1-yl)-1-(4-fluorophenyl)-6-methyl-1H-indazole] — 23-fold higher, 350 nM
- COCCOCCS(=O)(=O)N1C[C@@H]2[C@@H](c3ccccc3)[C@]2(c2cc3cnn(-c4ccc(F)cc4)c3cc2C)C1 (stereo in doubt) [Example 138, 1-(4-fluorophenyl)-5-(3-((2-(2-methoxyethoxy)ethyl)sulfonyl)-6-phenyl-3-azabicyclo[3.1.0]hexan-1-yl)-6-methyl-1H-indazole] — 4.7-fold higher, 70 nM
- Cc1cc2c(cnn2-c2ccc(F)cc2)cc1[C@@]12CN(S(=O)(=O)C3CCC3)C[C@@H]1[C@H]2c1ccccc1 (stereo in doubt) [Example 139, 5-(3-(cyclobutylsulfonyl)-6-phenyl-3-azabicyclo[3.1.0]hexan-1-yl)-1-(4-fluorophenyl)-6-methyl-1H-indazole] — 3-fold higher, 45 nM
- Cc1cc2c(cnn2-c2ccc(F)cc2)cc1[C@@]12CN(C(=O)c3cccc(C(F)F)c3)C[C@@H]1[C@H]2c1ccccc1 (stereo in doubt) [Example 143, (3-(difluoromethyl)phenyl)(1-(1-(4-fluorophenyl)-6-methyl-1H-indazol-5-yl)-6-phenyl-3-azabicyclo[3.1.0]hexan-3-yl)methanone] — 1.7-fold higher, 25 nM
- Cc1cc2c(cnn2-c2ccc(F)cc2)cc1[C@@]12CN(C(=O)c3cccc(C(F)(F)F)n3)C[C@@H]1[C@H]2c1ccccc1 (stereo in doubt) [Example 145, (1-(1-(4-fluorophenyl)-6-methyl-1H-indazol-5-yl)-6-phenyl-3-azabicyclo[3.1.0]hexan-3-yl)(6-(trifluoromethyl)pyridin-2-yl)methanone] — 3.2-fold higher, 48 nM
- Cc1cc2c(cnn2-c2ccc(F)cc2)cc1[C@@]12CN(C(=O)c3ccn(C)n3)C[C@@H]1[C@H]2c1ccccc1 (stereo in doubt) [Example 154, (1-(1-(4-fluorophenyl)-6-methyl-1H-indazol-5-yl)-6-phenyl-3-azabicyclo[3.1.0]hexan-3-yl)(1-methyl-1H-pyrazol-3-yl)methanone] — within 1.5-fold, 16 nM
- Cc1cc2c(cnn2-c2ccc(F)cc2)cc1[C@@]12CN(C(=O)c3ncccc3F)C[C@@H]1[C@H]2c1ccccc1 (stereo in doubt) [Example 156, (1-(1-(4-fluorophenyl)-6-methyl-1H-indazol-5-yl)-6-phenyl-3-azabicyclo[3.1.0]hexan-3-yl)(3-fluoropyridin-2-yl)methanone] — within 1.5-fold, 20 nM
- Cc1cc2c(cnn2-c2ccc(F)cc2)cc1[C@@]12CN(C(=O)c3ncc(F)cc3F)C[C@@H]1[C@H]2c1ccccc1 (stereo in doubt) [Example 157, (3,5-difluoropyridin-2-yl)(1-(1-(4-fluorophenyl)-6-methyl-1H-indazol-5-yl)-6-phenyl-3-azabicyclo[3.1.0]hexan-3-yl)methanone] — within 1.5-fold, 18 nM
- Cc1cc2c(cnn2-c2ccc(F)cc2)cc1[C@@]12CN(C(=O)c3nccs3)C[C@@H]1[C@H]2c1ccccc1 (stereo in doubt) [Example 158, (1-(1-(4-fluorophenyl)-6-methyl-1H-indazol-5-yl)-6-phenyl-3-azabicyclo[3.1.0]hexan-3-yl)(thiazol-2-yl)methanone] — within 1.5-fold, 12 nM
- Cc1cc2c(cnn2-c2ccc(F)cc2)cc1[C@@]12CN(C(=O)c3ccccc3S(C)(=O)=O)C[C@@H]1[C@H]2c1ccccc1 (stereo in doubt) [Example 159, (1-(1-(4-fluorophenyl)-6-methyl-1H-indazol-5-yl)-6-phenyl-3-azabicyclo[3.1.0]hexan-3-yl)(2-(methylsulfonyl)phenyl)methanone] — 1.6-fold higher, 24 nM
- Cc1cc2c(cnn2-c2ccc(F)cc2)cc1[C@@]12CN(C(=O)C3CCOCC3)C[C@@H]1[C@H]2c1ccccc1 (stereo in doubt) [Example 160, (1-(1-(4-fluorophenyl)-6-methyl-1H-indazol-5-yl)-6-phenyl-3-azabicyclo[3.1.0]hexan-3-yl)(tetrahydro-2H-pyran-4-yl)methanone] — 4.7-fold higher, 70 nM
- Cc1cc2c(cnn2-c2ccc(F)cc2)cc1[C@@]12CN(C(=O)c3ccnn3C)C[C@@H]1[C@H]2c1ccccc1 (stereo in doubt) [Example 161, (1-(1-(4-fluorophenyl)-6-methyl-1H-indazol-5-yl)-6-phenyl-3-azabicyclo[3.1.0]hexan-3-yl)(1-methyl-1H-pyrazol-5-yl)methanone] — 4.1-fold higher, 61 nM
- Cc1cc2c(cnn2-c2ccc(F)cc2)cc1[C@@]12CN(C(=O)c3ncccc3C)C[C@@H]1[C@H]2c1ccccc1 (stereo in doubt) [Example 162, (1-(1-(4-fluorophenyl)-6-methyl-1H-indazol-5-yl)-6-phenyl-3-azabicyclo[3.1.0]hexan-3-yl)(3-methylpyridin-2-yl)methanone] — 1.9-fold higher, 29 nM
- Cc1cc2c(cnn2-c2ccc(F)cc2)cc1[C@@]12CN(C(=O)c3cccc(C#N)n3)C[C@@H]1[C@H]2c1ccccc1 (stereo in doubt) [Example 164, 6-(1-(1-(4-fluorophenyl)-6-methyl-1H-indazol-5-yl)-6-phenyl-3-azabicyclo[3.1.0]hexane-3-carbonyl)picolinonitrile] — 2.1-fold lower, 7.2 nM
- Cc1cc2c(cnn2-c2ccc(F)cc2)cc1[C@@]12CN(C(=O)c3cccc(C(C)C)n3)C[C@@H]1[C@H]2c1ccccc1 (stereo in doubt) [Example 166, (1-(1-(4-fluorophenyl)-6-methyl-1H-indazol-5-yl)-6-phenyl-3-azabicyclo[3.1.0]hexan-3-yl)(6-isopropylpyridin-2-yl)methanone] — 3.1-fold higher, 47 nM
- Cc1cc2c(cnn2-c2ccc(F)cc2)cc1[C@@]12CN(C(=O)c3ccc(C(F)(F)F)cn3)C[C@@H]1[C@H]2c1ccccc1 (stereo in doubt) [Example 168, (1-(1-(4-fluorophenyl)-6-methyl-1H-indazol-5-yl)-6-phenyl-3-azabicyclo[3.1.0]hexan-3-yl)(5-(trifluoromethyl)pyridin-2-yl)methanone] — 2.6-fold higher, 39 nM
- COc1ccnc(C(=O)N2C[C@@H]3[C@@H](c4ccccc4)[C@]3(c3cc4cnn(-c5ccc(F)cc5)c4cc3C)C2)c1 (stereo in doubt) [Example 169, (1-(1-(4-fluorophenyl)-6-methyl-1H-indazol-5-yl)-6-phenyl-3-azabicyclo[3.1.0]hexan-3-yl)(4-methoxypyridin-2-yl)methanone] — 2.3-fold higher, 35 nM
- Cc1cc2c(cnn2-c2ccc(F)cc2)cc1[C@@]12CN(C(=O)c3ncccn3)C[C@@H]1[C@H]2c1ccccc1 (stereo in doubt) [Example 171, (1-(1-(4-fluorophenyl)-6-methyl-1H-indazol-5-yl)-6-phenyl-3-azabicyclo[3.1.0]hexan-3-yl)(pyrimidin-2-yl)methanone] — 2.4-fold higher, 36 nM
- Cc1cc2c(cnn2-c2ccc(F)cc2)cc1[C@@]12CN(C(=O)c3ccccc3)C[C@@H]1[C@H]2c1cccnc1 (stereo in doubt) [Example 173, (1-(1-(4-fluorophenyl)-6-methyl-1H-indazol-5-yl)-6-(pyridin-3-yl)-3-azabicyclo[3.1.0]hexan-3-yl)(phenyl)methanone] — 8.7-fold higher, 130 nM
- Cc1cc2c(cnn2-c2ccc(F)cc2)cc1[C@@]12CN(C(=O)c3ccccc3N3CCOCC3)C[C@@H]1[C@H]2c1ccccc1 (stereo in doubt) [Example 174, (1-(1-(4-fluorophenyl)-6-methyl-1H-indazol-5-yl)-6-phenyl-3-azabicyclo[3.1.0]hexan-3-yl)(2-morpholinophenyl)methanone] — 2.6-fold higher, 39 nM
